Data taken from patent US20220017877A1, “BILIRUBIN OXIDASE ACTIVITY IMPROVING METHOD, AND BILIRUBIN OXIDASE PRODUCT” (OZEKI CORPORATION, priority 2018, published 2022).
Structures can show the parent of a compound that is named as a salt.

Experiments:
[1] = ABTS initial absorbance (A436) reduction rate (Test Example 3); assay type: physicochemical; conditions: for A436 reduction rate (%): in one minute at 25° C., 1 mM (single compound) or 0.011 g nitrogen element in 100 mL (composition), pH 8.5; for change of ABTS initial absorbance: reaction solution A, FIG. 2
Source text: In the present specification, the absorbance of a solution containing ABTS (ABTS solution), at a wavelength of 436 nm, is defined as an ABTS initial absorbance (A436). In the present specification, the ABTS initial absorbance (A436) reduction rate (%) of the activity improving agent is defined to be a reduction rate (%) of the absorbance of a mixed solution, which contains the above ABTS solution and the above activity improving agent, at a wavelength of 436 nm in one minute, with respect to the ABTS initial absorbance (A436) (100%). Note that the ABTS solution is a solution in which the concentration of ABTS is adjusted such that the absorbance (A436) at a wavelength of 436 nm is approximately 1.3 at an optical path length of 1.0 cm. The value “approximately 1.3” here is intended to mean a value in a range in which 1.3 is obtained by rounding the value to the first decimal place. Test Examples described later will explain specific methods for measuring the absorbance (A436) of the ABTS solution at a wavelength of 436 nm and the ABTS initial absorbance (A436) reduction rate (%) of the activity improving agent. ABTS is an abbreviation for 2,2′-azinobis(3-ethylbenzothiazoline-6-sulfonic acid).
In the present activity improving method, when the ABTS initial absorbance (A436) reduction rate (%) of the activity improving agent is measured, the concentration of the activity improving agent in the ABTS solution for measurement is set as follows: (a) the concentration is set to 1 mM, when the molecular weight of the activity improving agent is evident as in a case where the activity improving agent is made of a single compound; and (b) when the activity improving agent is a substance which is made of a composition having an inevident molecular weight, the content of nitrogen element is used as a reference and the concentration is set such that the content of nitrogen element derived from the activity improving agent is 0.011 g in 100 mL of the ABTS solution for measurement. Note that, in the above (b), the content of nitrogen element derived from the activity improving agent in the ABTS solution is a value calculated by the Kjeldahl method.
The following describes a specific evaluation method. ABTS employed was an ABTS manufactured by Roche Diagnostics K.K. Further, the ABTS was dissolved in a 50 mM glycine-KOH (pH 8.5) buffer so that the concentration of the ABTS became 2.0 mg/mL. An ABTS solution was thus prepared. The absorbance of the ABTS solution at a wavelength of 436 nm (ABTS initial absorbance (A436)) was measured at an optical path length of 1.0 cm, by using a molecular absorption spectrometer Spectra Max Plus 384 (manufactured by Molecular Devices Japan K.K.). As a result the absorbance was approximately 1.3. Next, 5 μL of an activity improving agent solution or a comparative substance solution was added to 195 μL of the ABTS solution, so that a reaction solution for evaluating ABTS (hereinafter, also referred to as “reaction solution A”) was prepared. […]

[2] = target: T1, recombinant BOD (bilirubin oxidase) derived from Myrothecium verrucaria MT-1 (Albifimbria verrucaria, UniProt Q12737); assay: BOD activity after leaving the BOD solution with an activity improving agent or comparative substance at 30° C. in a deoxygenated atmosphere (Test Example 1); assay type: biochemical; conditions: for Activity (%) Day 47: left 47 days at 30° C.; for Activity (%) Day 47 / Activity (%) Day 14: relative to Day 0, additive concentration as in Table 1; for Activity (%) Day 0: 30° C., additive concentration as in Table 1; for Activity (%) Day 14: left 14 days at 30° C.
T1 construct: made in house; host or cells: Aspergillus sp
T1 sequence (Q12737 39-572): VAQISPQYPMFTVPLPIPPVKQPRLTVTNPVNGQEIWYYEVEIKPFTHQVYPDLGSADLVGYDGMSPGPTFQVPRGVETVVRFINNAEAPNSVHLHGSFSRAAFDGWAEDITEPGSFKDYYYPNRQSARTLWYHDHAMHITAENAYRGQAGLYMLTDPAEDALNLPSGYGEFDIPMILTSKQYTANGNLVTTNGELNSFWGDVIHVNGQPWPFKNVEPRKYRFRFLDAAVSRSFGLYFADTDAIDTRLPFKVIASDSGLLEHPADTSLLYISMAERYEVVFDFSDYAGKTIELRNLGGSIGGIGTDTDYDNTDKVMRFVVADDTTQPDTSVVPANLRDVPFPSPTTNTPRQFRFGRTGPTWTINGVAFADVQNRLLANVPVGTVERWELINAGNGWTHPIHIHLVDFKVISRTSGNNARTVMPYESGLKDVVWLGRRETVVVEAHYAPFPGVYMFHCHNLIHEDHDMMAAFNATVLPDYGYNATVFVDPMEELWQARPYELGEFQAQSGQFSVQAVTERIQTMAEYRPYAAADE
Procedure: A BOD solution, which contains: a BOD; and the present activity improving agent or a comparative substance, was left in an environment at a temperature of 30° C. in a deoxygenated atmosphere for a certain period of time. After the BOD solution was left as above, improvement of the BOD activity by the present activity improving method was evaluated by measurement of the BOD activity.
In Test Example 1, a BOD gene derived from a Myrothecium verrucaria MT-1 (GenBank accession number: D12579.1) was introduced into an Aspergillus sp., and then a recombinant BOD (hereinafter, also referred to simply as “BOD”) expressed in the Aspergillus sp. was purified by using a well-known technique and then used as the BOD. The BOD gene derived from the Myrothecium verrucaria MT-1 was codon-optimized in accordance with a gene sequence of the Aspergillus sp., and then introduced into the Aspergillus sp. Further, the BOD thus purified was dissolved in a 50 mM glycine-KOH (pH 8.5) buffer so that the concentration of the BOD became 1.0 mg/mL. Then, a resultant solution was used as a BOD enzyme solution.
The enzymatic activity of the BOD was measured as follows. To 1780 μL of a 50 mM potassium phosphate buffer (pH 6.5), 200 μL of a 20 mM ABTS substrate solution was added, so that a mixed solution (1980 μL) was prepared. This mixed solution was incubated for 1 min at 37° C. Thereafter, 20 μL of a solution containing the BOD (specifically, a BOD solution for evaluation, which will be described later) was added to the mixed solution, and a resultant mixed solution (2 mL) was incubated at 37° C. While the mixed solution was incubated, the absorbance of the mixed solution at a wavelength of 436 nm was measured immediately after that addition of the BOD solution for evaluation (at 0 seconds) and thereafter every 20 seconds. On the basis of (i) the absorbance of the mixed solution at a wavelength of 436 nm immediately after the addition of the BOD solution for evaluation and (ii) the absorbance of the mixed solution at a wavelength of 436 nm after a lapse of 1 minute from the addition of the BOD solution for evaluation, calculation was carried out for obtaining an increase rate per minute of the absorbance of the mixed solution at a wavelength of 436 nm after the addition of the BOD solution for evaluation. The BOD activity (unit) in the BOD solution for evaluation was calculated from the increase rate. In the present specification, the amount of enzyme for oxidizing 1 μmol of ABTS per minute was defined as one unit.
A specific test method of Test Example 1 is as follows. To a BOD enzyme solution containing a BOD, one of the above-described present activity improving agents was added, so that a BOD solution (which is the BOD solution according to an embodiment of the present invention) was prepared. Further, one of the above-described comparative substances was added to the BOD enzyme solution, so that another BOD solution was prepared. In addition, still another BOD solution was prepared by adding, to the BOD enzyme solution, distilled water in place of the activity improving agent or the comparative substance, so that a control (denoted as Without additive in Tables 1 to 3) was prepared. The final concentration of the activity improving agent or the comparative substance in each of the above BOD solutions was shown in “mM” or “percentage (%)” (amount (g) of the activity improving agent or the comparative substance relative to 100 mL of the BOD solution) in Table 1.
Thereafter, one of these BOD solutions and a deoxygenating agent (Anaero Pack manufactured by Mitsubishi Gas Chemical Company, Inc.) were included in one container. Then, the container was sealed, so that a BOD container was prepared. The BOD container was left in an environment at a temperature of 30° C. in a deoxygenated atmosphere for 47 days (Table 2) or 14 days (Table 3). […]

[3] = Day 0 (start of leaving, set to 100%) of the 14-day test
[4] = Day 0 (start of leaving, set to 100%)

SMILES | A436 reduction rate (%) [1] [%] | Activity (%) Day 47 [2] [%] | change of ABTS initial absorbance [1] | Activity (%) Day 0 [2, 3] [%] | Activity (%) Day 14 [2] [%] | Activity (%) Day 0 [2, 4] [%]
O[C@H](CS)[C@H](O)CS (racemic) [DTT, dithiothreitol, reference compound] | 87.81 | 0 |  |  |  | 
N.N.O=S(=O)(O)O [Ammonium sulfate, ammonium sulfate, reference compound] | 0.00 |  | does not change | 100 | 65 | 
N.O=C(O)CS [Ammonium thioglycolate, ammonium thioglycolate, reference compound] | 87.81 | 0 |  |  |  | 100
NCCS [Cysteamine hydrochloride, cysteamine hydrochloride, reference compound] | 87.81 | 1 |  |  |  | 
O=C(CS)OCC(O)CO (stereo not shown) [GMT, glyceryl monothioglycolate, reference compound] | 87.81 | 1 |  |  |  | 
N[C@@H](CCC(=O)N[C@@H](CS)C(=O)NCC(=O)O)C(=O)O [Glutathione (reduced form), glutathione (reduced form)] | 87.81 | 113 |  |  |  | 100
O=CC(=O)O [Glyoxylic acid, glyoxylic acid] | 0.33 |  |  |  | 194 | 
Cl.N[C@@H](CS)C(=O)O [L-cysteine hydrochloride] | 87.81 | 130 |  |  |  | 
CC(=O)N[C@@H](CS)C(=O)O [N-acetyl-L-cysteine] | 87.81 | 122 |  |  |  | 
O=S([O-])[O-].[Na+].[Na+] [Sodium sulfite, sodium sulfite] | 87.81 | 162 |  |  |  | 100
Cc1c(C)c2c(c(C)c1O)CCC(C)(C(=O)O)O2 (stereo not shown) [Trolox] | 83.90 | 251 |  |  |  | 
NC(N)=O [Urea, urea, reference compound] | 0.00 |  | does not change | 100 | 56 | 
